# Ends that are not written are not given here.
# Tests used:
# [1] = system: superoxide dismutase (SOD) protein; assay: Western immunoblot of SOD protein in rat brain primary cortical cultures; type: cell-based; conditions: Dose 6.7 pmol/ml, 5 hours at 37° C.
# Procedure: Primary cortical cultures were obtained by growing newborn rat brain cortical cells in Delbecco's modified Eagle medium supplemented with 25 μg/ml of gentamycin and 10% fetal calf serum. The cells were isolated from the E-21 cortex of rat brain, plated at a density of 1×10^5 per ml and grown to confluence within four to five days in an atmosphere containing air and 5% CO2 at 37° C. as described in Cornell-Bell et al., Science, 247: 470-473 (1990) and Cell Calcium, 12: 185-204 (1991). Cultures were grown in 20 ml flasks as a monolayer and then exposed to various concentrations of peptides for studies of the effects of peptides on upregulation of genes for SOD and CAT and on the transmigration of transcription factor AP-1 to cell nuclei. […]
# Tissue culture experiments were carried out using primary cultures of rat brain cortical cells as previously described above in Example 2. Primary cultures from embryonic rat brain isolated at E-21 (21 day embryos) and incubated for five hours with various doses: 1, 10, 100 ng/ml of CMX-99672. Cytoplasmic proteins were isolated and analyzed for upregulation of SOD and CAT by Western immunoblots as described above. […] The Western blot was scanned to quantify the fold-increase in SOD production in cell cultures treated with the CMX-99672 peptide compound.
# Representative peptide compounds were tested at various doses and compared for their ability to upregulate expression of genes for SOD and/or CAT in rat primary cortical cultures basically as described above. Cultures were incubated with a peptide compound for 5 hours at 37° C. Cytoplasmic protein fractions were prepared as described above. Cytoplasmic proteins were separated by gel electrophoresis and analyzed by Western immunoblots using antisera to SOD and CAT, respectively (Rockland, Inc., Gilbertsville, Pa.). […]
# [2] = system: middle cerebral artery (MCA) temporary occlusion stroke model; assay: Temporary MCA occlusion stroke model; type: in vivo, Sprague-Dawley rats
# Procedure: (§1) The in vivo neuroprotective effects of CMX-9236 were investigated in both temporary and permanent occlusion stroke models in Sprague-Dawley rats using an intraluminal suture of the middle cerebral artery (MCA) occlusion method (Zea Longa et al., Stroke, 20: 84 (1989)). Briefly, a 4-0 silicone-coated suture was inserted through the right common carotid artery to block the MCA orifice. In the temporary model, CMX-9236 (6.2 mg/kg/hr) or vehicle was administered via the femoral vein at 30 minutes after the start of a 2-hour occlusion for a 4-hour continuous infusion; the rats were then reperfused by withdrawing the suture at […] after the MCA occlusion. All experiments were performed in a blinded and randomized manner, and rectal temperature was maintained at 37° C. The animals were sacrificed, and their brains were removed, sectioned into six 2-mm-thick coronal slices and stained with 2,3,5-triphenyltetrazolium chloride solution (Bederson et al., Stroke, 17:1304 (1986)) to visualize the extent of brain damage for the calculation of the corrected hemispheric infarct volumes (Nagasawa and Kogure, Stroke, 20:1037 (1989); Li et al., J. Cereb. Blood Flow Metab., 17:1132 (1997)). […] This represents a significant reduction of infarct size (35±5%, p=0.01, student t-test) for the CMX-9236-treated group in the temporary occlusion model. There was also a 58+11% improvement in the neurological scoring (Minematsu et al., Neurology, 42:235 (1992)) for the peptide-treated group versus controls at the end of 24 hours.
# [3] = system: middle cerebral artery (MCA) permanent occlusion stroke model; assay: Permanent MCA 24-hour occlusion stroke model; type: in vivo, Sprague-Dawley rats
# Procedure: as §1
# In the permanent occlusion stroke model, the blood flow to the MCA territory was blocked for the total 24-hour period. A continuous i.v. infusion (0.5 ml/hr) of the CMX-9236 peptide (2.04 mg/kg/hr) or vehicle was initiated at 30 minutes after occlusion for 6 hours, followed by a bolus i.v. infusion of CMX-9236 (4.0 mg/kg in 0.5 ml delivered over 10 minutes) or vehicle at 12 hours after occlusion. The corrected infarct volumes were 127.5±18 mm^3 versus 216±18 mm^3 for drug-treated animals and controls, respectively. This represents a significant decrease (41±5%, p=0.003, student t-test) in infarct size for the drug-treated group as compared to the vehicle-treated control group (n=10 per group) in the permanent model, indicating a substantial rescue of brain tissue. These findings indicate that CMX-9236 has neuroprotective properties post-trauma in vivo, reducing the brain damage generated by cerebral ischemia.
# [4] = system: middle cerebral artery (MCA) permanent occlusion stroke model; assay: Permanent MCA 24-hour occlusion stroke model; type: in vivo, Sprague-Dawley rats; conditions: Dose 0.05 mg/hr
sequence,measurement,setting,value
"KKDGDGDFAIDAPE [CMX-9236, uncapped peptide]",SOD,[1],466 % Control
same,corrected infarct volume (mean±S.E.),"[2]; 6.2 mg/kg/hr i.v., 4-hour infusion from 30 min after start of occlusion, n=10",117.3±17 mm^3
same,reduction of infarct size vs vehicle,"[2]; 6.2 mg/kg/hr, p=0.01",35±5%
same,improvement in neurological scoring vs controls,[2]; at the end of 24 hours,58+11%
same,corrected infarct volume,"[3]; 2.04 mg/kg/hr i.v. for 6 hours from 30 min, plus 4.0 mg/kg bolus at 12 hours, n=10",127.5±18 mm^3
same,decrease in infarct size vs vehicle,"[3]; 2.04 mg/kg/hr infusion plus 4.0 mg/kg bolus, p=0.003",41±5%
same,Percent Neurological Rescue,[4],35 ± 8%
same,Percent Rescue (percent decrease in infarct size vs vehicle controls),[4],23 ± 7%
